According to patent publication US20250325531A1, “TREATMENT OF SYSTOLIC DYSFUNCTION” (MyoKardia, Inc., priority 2024, published 2025):

Assay: Single ascending oral dose pharmacokinetics in healthy volunteers (plasma and urine, LC MS/MS)
Type: in vivo, human
Settings: for dose recovered in urine: 0-48 hours urine
Description: This example describes the first-in-human study of Compound I. Based on its mechanism of action, Compound I may offer a targeted therapy for patients with DCM caused by genetic or nongenetic mechanisms. The study was a randomized, double-blind, placebo-controlled, sequential group, single-ascending (oral) dose study in healthy subjects aged 18-55 years. Eight dosing cohorts, each comprising eight healthy subjects, were enrolled. Within each cohort, subjects were randomized 6:2 to Compound I: placebo.
Subjects were resident at the clinical site for up to 5 days and 4 nights, from Day-1 (the day before dosing) to Day 4, and received a single dose of Compound I or placebo on Day 1. ECG telemetry was initiated 1 hour predose and continued through 48 hours postdose (Day 3). Any subject with a predose resting HR ≥80 beats per minute was considered ineligible and not treated. […] Subjects returned for a safety follow-up visit 7 days (+1 day) after dosing.
All randomized study subjects received either Compound I or matching placebo as a single oral dose after a fasting period of at least 6 hours. Compound I drug substance is a crystalline, free-base, synthetic molecule with a molecular weight of 435.4 g/mol.
Compound I was provided as a powder for oral suspension. Placebo was provided as calcium carbonate powder. Both treatments were dosed orally as a suspension. The suspension was made using Ora-Plus® suspending vehicle (Perrigo) and a cherry syrup flavoring vehicle (Humco), mixed 50% to 50%. The suspension was followed by approximately 100 mL water. The suspension was made up within 14 days from the time in which it was dosed which was consistent with the stability data on the suspension. The suspension was made up so the volume administered to the subjects who received Compound I was the same at 20 mL.
Each subject received a dose according to the cohort in which they were enrolled. Cohorts were enrolled sequentially, with each cohort receiving an escalated dose of Compound I. The doses administered were 3 mg, 10 mg, 25 mg, 50 mg, 100 mg, 175 mg, 350 mg, and 525 mg, respectively.
The concentrations of Compound I in human plasma and urine were quantitated by high performance liquid chromatography with tandem mass spectrometric detection (LC MS/MS) (Biological sample analysis study report Alturas AD17-726). Plasma samples were extracted by protein precipitation with acetonitrile containing internal standard MYK-5654. The calibration curves were linear over concentration range of 0.500 to 1000 ng/mL with a lower limit of quantification (LLOQ) of 0.500 ng/mL.
The PK Population included all subjects who received Compound I. Blood samples were collected for PK assessments. The actual timing of the samples may have been modified and/or up to an additional 2 samples may have been requested by the SRC after review of the data from previous cohorts. It was important that PK sampling occurred as closely as possible to the scheduled time (+10%). Both blood and urine samples were used for PK assessments.
In addition, for subjects who received placebo, a single plasma sample near the predicted tmax of Compound I was evaluated to confirm the lack of circulating Compound I. Plasma concentration data for Compound I was summarized using descriptive statistics, including mean, standard deviation (SD), median, minimum, and maximum values, and percent coefficient of variation. Other PK parameters included (but were not limited to) Cmax, tmax, AUC, t1/2, and MRT. Additionally, the apparent terminal-phase terminal half-life was calculated. The dose proportionality of AUC and Cmax was explored.

With Cn1cc(S(=O)(=O)[C@@](C)(F)C2CCN(C(=O)Nc3ccon3)CC2)c(C(F)F)n1 [Compound I, (R)-4-(1-((3-(difluoromethyl)-1-methyl-1H-pyrazol-4-yl)sulfonyl)-1-fluoroethyl)-N-(isoxazol-3-yl) piperidine-1-carboxamide] the “dose recovered in urine” value (350 mg) was “approximately 6.0%”, the “dose recovered in urine” value (525 mg) was about 8.6% and the “AUC0-48 Geometric Mean” value (3 mg) was 676.32 ng·h/mL. For the same compound, the “AUC0-last Median” value (3 mg) was 713.41 ng·h/mL, the “AUC0-∞ Geometric Mean” value (3 mg) was 722.23 ng·h/mL and the “CL/F Geometric Mean” value (3 mg) was 4.15 L/h. The “CL/F Mean” value (3 mg) was 4.26 L/h, the “CL/F Median” value (3 mg) was 4.22 L/h and the “Extrapolation Geometric Mean” value (3 mg) was 2.71%. For the same compound, the “Extrapolation Mean” value (3 mg) was 2.78%, the “Extrapolation Median” value (3 mg) was 2.82% and the “Half-Life Lambda Z Geometric Mean” value (3 mg) was 11.10 h. The “CL/F Geometric Mean” value (10 mg) was 2.99 L/h, the “CL/F Mean” value (10 mg) was 3.06 L/h and the “CL/F Median” value (10 mg) was 2.88 L/h. For the same compound, the “Cmax Mean” value (10 mg) was 139.17 ng/mL, the “Extrapolation Geometric Mean” value (10 mg) was 1.59% and the “Extrapolation Mean” value (10 mg) was 1.90%. For the same compound, the “Extrapolation Median” value (10 mg) was 2.24%, the “Half-Life Lambda Z Mean” value (10 mg) was 13.36 h and the “Mean Residence Time Geometric Mean” value (10 mg) was 21.06 h. The “Tmax Geometric Mean” value (10 mg) was 4.80 h, the “Tmax Mean” value (10 mg) was 4.85 h and the “AUC0-last Geometric Mean” value (25 mg) was 6924.51 ng·h/mL. The “AUC0-last Mean” value (25 mg) was 7161.62 ng·h/mL, the “CL/F Geometric Mean” value (25 mg) was 3.55 L/h and the “CL/F Mean” value (25 mg) was 3.69 L/h. For the same compound, the “CL/F Median” value (25 mg) was 3.32 L/h, the “Extrapolation Geometric Mean” value (25 mg) was 1.45% and the “Extrapolation Mean” value (25 mg) was 1.72%. The “Extrapolation Median” value (25 mg) was 1.92%, the “Half-Life Lambda Z Geometric Mean” value (25 mg) was 13.14 h and the “Half-Life Lambda Z Mean” value (25 mg) was 13.28 h. The “Mean Residence Time Geometric Mean” value (25 mg) was 20.60 h, the “Mean Residence Time Median” value (25 mg) was 20.07 h and the “Tmax Geometric Mean” value (25 mg) was 4.64 h. For the same compound, the “Tmax Mean” value (25 mg) was 4.67 h, the “AUC0-last Geometric Mean” value (50 mg) was 11075.03 ng·h/mL and the “AUC0-last Median” value (50 mg) was 11185.34 ng·h/mL. For the same compound, the “AUC0-∞ Geometric Mean” value (50 mg) was 11177.07 ng·h/mL, the “AUC0-∞ Median” value (50 mg) was 11204.30 ng·h/mL and the “CL/F Geometric Mean” value (50 mg) was 4.47 L/h. The “CL/F Mean” value (50 mg) was 4.53 L/h, the “CL/F Median” value (50 mg) was 4.46 L/h and the “Extrapolation Geometric Mean” value (50 mg) was 0.46%. For the same compound, the “Extrapolation Mean” value (50 mg) was 0.91%, the “Extrapolation Median” value (50 mg) was 0.46% and the “Mean Residence Time Geometric Mean” value (50 mg) was 20.79 h. For the same compound, the “Mean Residence Time Mean” value (50 mg) was 20.98 h, the “Tmax Geometric Mean” value (50 mg) was 4.66 h and the “Tmax Mean” value (50 mg) was 4.69 h. The “AUC0-48 Median” value (100 mg) was 21561.98 ng·h/mL, the “AUC0-last Geometric Mean” value (100 mg) was 21734.19 ng·h/mL and the “AUC0-last Median” value (100 mg) was 22401.00 ng·h/mL. The “CL/F Geometric Mean” value (100 mg) was 4.69 L/h, the “CL/F Mean” value (100 mg) was 4.76 L/h and the “CL/F Median” value (100 mg) was 5.33 L/h. For the same compound, the “Extrapolation Geometric Mean” value (100 mg) was 0.36%, the “Extrapolation Mean” value (100 mg) was 5.48% and the “Extrapolation Median” value (100 mg) was 0.14%. The “Half-Life Lambda Z Geometric Mean” value (100 mg) was 11.08 h, the “Tmax Mean” value (100 mg) was 4.50 h and the “AUC0-48 Median” value (175 mg) was 32704.35 ng·h/mL. For the same compound, the “AUC0-last Geometric Mean” value (175 mg) was 38235.62 ng·h/mL, the “CL/F Geometric Mean” value (175 mg) was 4.57 L/h and the “CL/F Mean” value (175 mg) was 4.66 L/h. The “CL/F Median” value (175 mg) was 4.45 L/h, the “Cmax Geometric Mean” value (175 mg) was 1301.37 ng/mL and the “Cmax Mean” value (175 mg) was 1316.17 ng/mL. For the same compound, the “Extrapolation Geometric Mean” value (175 mg) was 0.14%, the “Extrapolation Mean” value (175 mg) was 0.17% and the “Extrapolation Median” value (175 mg) was 0.16%. The “Half-Life Lambda Z Mean” value (175 mg) was 15.83 h, the “Mean Residence Time Geometric Mean” value (175 mg) was 24.44 h and the “Mean Residence Time Median” value (175 mg) was 24.43 h. The “Tmax Geometric Mean” value (175 mg) was 5.07 h, the “Tmax Mean” value (175 mg) was 5.11 h and the “AUC0-24 Geometric Mean” value (350 mg) was 44703.88 ng·h/mL. The “AUC0-48 Median” value (350 mg) was 66430.88 ng·h/mL, the “AUC0-last Geometric Mean” value (350 mg) was 73185.05 ng·h/mL and the “AUC0-last Median” value (350 mg) was 76161.9 ng·h/mL. The “AUC0-∞ Geometric Mean” value (350 mg) was 73626.42 ng·h/mL, the “AUC0-∞ Median” value (350 mg) was 76241.22 ng·h/mL and the “CL/F Geometric Mean” value (350 mg) was 4.75 L/h. For the same compound, the “CL/F Mean” value (350 mg) was 4.95 L/h, the “CL/F Median” value (350 mg) was 4.75 L/h and the “Extrapolation Geometric Mean” value (350 mg) was 0.37%. For the same compound, the “Extrapolation Mean” value (350 mg) was 0.60%, the “Extrapolation Median” value (350 mg) was 0.43% and the “Half-Life Lambda Z Mean” value (350 mg) was 14.66 h. The “Mean Residence Time Median” value (350 mg) was 22.73 h, the “Tmax Geometric Mean” value (350 mg) was 4.84 h and the “Tmax Mean” value (350 mg) was 4.95 h. The “AUC0-24 Median” value (350 mg + 525 mg) was 38537.03 ng·h/mL, the “AUC0-∞ Mean” value (350 mg + 525 mg) was 74358.88 ng·h/mL and the “CL/F Geometric Mean” value (350 mg + 525 mg) was 6.04 L/h. For the same compound, the “CL/F Mean” value (350 mg + 525 mg) was 6.51 L/h, the “CL/F Median” value (350 mg + 525 mg) was 6.10 L/h and the “Extrapolation Geometric Mean” value (350 mg + 525 mg) was 0.29%. The “Extrapolation Mean” value (350 mg + 525 mg) was 0.59%, the “Extrapolation Median” value (350 mg + 525 mg) was 0.32% and the “Half-Life Lambda Z Geometric Mean” value (350 mg + 525 mg) was 14.51 h. For the same compound, the “Mean Residence Time Mean” value (350 mg + 525 mg) was 24.28 h, the “Tmax Geometric Mean” value (350 mg + 525 mg) was 4.89 h and the “Tmax Mean” value (350 mg + 525 mg) was 4.96 h. For the same compound, the “AUC0-24 Median” value (525 mg) was 38212.84 ng·h/mL, the “AUC0-48 Geometric Mean” value (525 mg) was 56964.59 ng·h/mL and the “AUC0-last Geometric Mean” value (525 mg) was 68111.84 ng·h/mL. For the same compound, the “AUC0-∞ Geometric Mean” value (525 mg) was 68514.68 ng·h/mL, the “CL/F Geometric Mean” value (525 mg) was 7.66 L/h and the “CL/F Mean” value (525 mg) was 8.07 L/h. The “CL/F Median” value (525 mg) was 7.64 L/h, the “Cmax Geometric Mean” value (525 mg) was 2294.46 ng/mL and the “Cmax Mean” value (525 mg) was 2350.00 ng/mL. For the same compound, the “Extrapolation Geometric Mean” value (525 mg) was 0.22%, the “Extrapolation Mean” value (525 mg) was 0.59% and the “Extrapolation Median” value (525 mg) was 0.23%. For the same compound, the “Half-Life Lambda Z Geometric Mean” value (525 mg) was 14.70 h, the “Half-Life Lambda Z Median” value (525 mg) was 13.77 h and the “Tmax Geometric Mean” value (525 mg) was 4.94 h. The “Tmax Mean” value (525 mg) was 4.97 h and the “dose proportionality slope (power model)” value (all doses, 95% CI 0.8358-0.9417) was 0.8888.
